Reference: US11312705B2, “Heteroaryl[4,3-C]pyrimidine-5-amine derivative, preparation method therefor, and medical uses thereof” (Jiangsu Hengrui Medicine Co., Ltd., priority 2017, dated 2022)

What was measured:
Type in all cases: cell-based
[1] = target: adenosine A1 receptor (A1R) (Homo sapiens (Human), UniProt P30542); assay: Inhibition of adenosine A1 receptor cAMP signaling pathway (HTRF cAMP, CHO-K1/A1R cells); details: Table 2; for IC50: CHO-K1/A1R cells, forskolin 10 μM, CPA 10 nM, cAMP HTRF; for IC50 ratio (A1R/A2aR): selectivity A1R over A2aR
Sequence of adenosine A1 receptor (A1R) (P30542 whole entry): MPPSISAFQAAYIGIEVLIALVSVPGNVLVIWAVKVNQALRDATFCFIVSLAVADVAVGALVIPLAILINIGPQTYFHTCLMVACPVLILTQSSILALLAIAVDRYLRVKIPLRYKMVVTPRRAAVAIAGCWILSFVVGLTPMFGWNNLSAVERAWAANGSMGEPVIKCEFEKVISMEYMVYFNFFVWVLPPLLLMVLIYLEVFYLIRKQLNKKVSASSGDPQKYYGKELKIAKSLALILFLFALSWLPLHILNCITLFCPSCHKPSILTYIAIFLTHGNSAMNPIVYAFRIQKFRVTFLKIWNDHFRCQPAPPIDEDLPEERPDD
Text: (§1) Test Example 1. Determination of the inhibition activity of the compounds of the present invention on the adenosine A2a receptor (A2aR) cAMP signaling pathway, the adenosine A2b receptor (A2bR) cAMP signaling pathway, the adenosine A1 receptor (A1R) cAMP signaling pathway and the adenosine A3 receptor (A3R) cAMP signaling pathway.
(§2) The inhibition activity of the compounds of the present invention on the adenosine A2a receptor cAMP signaling pathway, the adenosine A2b receptor cAMP signaling pathway, the adenosine A1 receptor cAMP signaling pathway and the adenosine A3 receptor cAMP signaling pathway was determined by the following method. The experimental method is briefly described as follows:
2.2 Adenosine A1 receptor
(§3) CHO-K1/A1R cells were cultured in DMEM/F12 medium containing 10% fetal bovine serum and 1 mg/ml G418. The cells were digested with the cell separation buffer during the experiment. The cells were then resuspended in the balanced salt buffer containing 20 mM HEPES and 0.1% bovine serum albumin and counted, and the cell density was adjusted to 5×10^5 cells/ml. In the 384-well plate, each well was added with 12.5 μl of cell suspension, and 6.25 μl of test compound (4× concentration) formulated with the balanced salt buffer containing 20 mM HEPES, 0.1% bovine serum albumin, 54 μM rolipram and 2.7 U/ml adenosine deaminase, and the plate was incubated at room temperature for 30 minutes. Each well was then added with 6.25 μl of forskolin and N6-cyclopentyladenosine (4× concentration) formulated with the balanced salt buffer containing 20 mM HEPES, 0.1% bovine serum albumin, 54 μM rolipram and 2.7 U/ml adenosine deaminase, and the plate was incubated at room temperature for 30 minutes. The final concentrations of the compounds were: 100000, 10000, 1000, 100, 10, 1, 0.1 and 0 nM. The final concentration of forskolin was 10 μM. The final concentration of CPA was 10 nM. Intracellular cAMP concentration was detected with the cAMP dynamic 2 kit. cAMP-d2 and Anti-cAMP-Eu-Cryptate were diluted respectively with the cAMP lysis buffer at a ratio of 1:4. Each well was added with 12.5 μl of diluted cAMP-d2, followed by addition of 12.5 μl of diluted Anti-cAMP-Eu-Cryptate, and the plate was incubated at room temperature in the dark for 1 hour. The HTRF signal values were read by the PHERAstar multi-function microplate reader.

[2] = target: adenosine A2b receptor (A2bR) (Homo sapiens (Human), UniProt P29275); assay: Inhibition of adenosine A2b receptor cAMP signaling pathway (HTRF cAMP, CHO-K1/A2bR cells); details: Table 3; for IC50: CHO-K1/A2bR cells, ethyl carbazole 1 μM, cAMP HTRF; for IC50 ratio (A2bR/A2aR): selectivity A2bR over A2aR
Sequence of adenosine A2b receptor (A2bR) (P29275 whole entry): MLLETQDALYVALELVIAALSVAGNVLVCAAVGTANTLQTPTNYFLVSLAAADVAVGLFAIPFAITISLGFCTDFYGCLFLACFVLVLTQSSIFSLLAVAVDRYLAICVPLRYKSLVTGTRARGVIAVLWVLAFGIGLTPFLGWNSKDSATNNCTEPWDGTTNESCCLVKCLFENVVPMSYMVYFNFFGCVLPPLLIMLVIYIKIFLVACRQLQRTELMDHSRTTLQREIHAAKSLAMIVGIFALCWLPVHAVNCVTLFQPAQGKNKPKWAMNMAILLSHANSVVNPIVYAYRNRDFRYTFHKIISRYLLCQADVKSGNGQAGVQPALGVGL
Text: as §1, §2
2.4 Adenosine A2b receptor (A2bR)
CHO-K1/A2bR cells were cultured in DMEM/F12 medium containing 10% fetal bovine serum and 1 mg/ml G418. The cells were digested with the cell separation buffer during the experiment. The cells were resuspended in the balanced salt buffer containing 20 mM HEPES and 0.1% bovine serum albumin and counted, and the cell density was adjusted to 10^6 cells/ml. In the 384-well plate, each well was added with 5 μl of cell suspension, and 2.5 μl of test compound (4× concentration) formulated with the balanced salt buffer containing 20 mM HEPES, 0.1% bovine serum albumin, 54 μM rolipram and 2.7 U/ml adenosine deaminase, and the plate was incubated at room temperature for 30 minutes. Each well was then added with 2.5 μl of […] (4× concentration) (Torcis, 1691/10) formulated with the balanced salt buffer containing 20 mM HEPES, 0.1% bovine serum albumin, 54 μM rolipram and 2.7 U/ml adenosine deaminase, and the plate was incubated at room temperature for 30 minutes. The final concentrations of the compounds were: 100000, 10000, 1000, 100, 10, 1, 0.1 and 0 nM. The final concentration of […] was 1 μM. Intracellular cAMP concentration was detected with the cAMP dynamic 2 kit. cAMP-d2 and Anti-cAMP-Eu-Cryptate were diluted respectively with the cAMP lysis buffer at a ratio of 1:4. Each well was added with 5 μl of diluted cAMP-d2, followed by addition of 5 μl of diluted Anti-cAMP-Eu-Cryptate, and the plate was incubated at room temperature in the dark for 1 hour. The HTRF signal values were read by the PHERAstar multi-function microplate reader.

[3] = target: adenosine A3 receptor (A3R) (Homo sapiens (Human), UniProt P0DMS8); assay: Inhibition of adenosine A3 receptor cAMP signaling pathway (HTRF cAMP, CHO-K1/A3R cells); details: Table 2; for IC50: CHO-K1/A3R cells, forskolin 10 μM, 2Cl-IB-MECA 5 nM, cAMP HTRF
Sequence of adenosine A3 receptor (A3R) (P0DMS8 whole entry): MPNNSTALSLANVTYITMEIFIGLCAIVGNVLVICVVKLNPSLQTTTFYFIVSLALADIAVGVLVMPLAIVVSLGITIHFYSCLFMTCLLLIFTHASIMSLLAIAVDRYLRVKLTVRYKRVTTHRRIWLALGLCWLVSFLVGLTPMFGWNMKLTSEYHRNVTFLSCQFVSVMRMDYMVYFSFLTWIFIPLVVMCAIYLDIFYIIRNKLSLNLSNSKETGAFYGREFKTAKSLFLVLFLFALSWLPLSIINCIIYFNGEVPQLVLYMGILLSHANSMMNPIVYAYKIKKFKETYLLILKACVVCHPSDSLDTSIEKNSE
Text: as §1, §2
2.3 Adenosine A3 receptor
as §3, with “CHO-K1/A3R cells were” for “CHO-K1/A1R cells were”, “serum and 10 μg/ml puromycin. The cells” for “serum and 1 mg/ml G418. The cells”, “cells were resuspended in” for “cells were then resuspended in”, “forskolin and 2Cl-IB-MECA (4× concentration)” for “forskolin and N6-cyclopentyladenosine (4× concentration)”, “concentration of 2Cl-IB-MECA was 5” for “concentration of CPA was 10”, “2Cl-IB-MECA was 5 nM. Intracellular” for “CPA was 10 nM. Intracellular”

[4] = target: adenosine A2a receptor (A2aR) (Homo sapiens (Human), UniProt P29274); assay: Inhibition of adenosine A2a receptor cAMP signaling pathway (HTRF cAMP, CHO-K1/A2aR cells)
Sequence of adenosine A2a receptor (A2aR) (P29274 whole entry): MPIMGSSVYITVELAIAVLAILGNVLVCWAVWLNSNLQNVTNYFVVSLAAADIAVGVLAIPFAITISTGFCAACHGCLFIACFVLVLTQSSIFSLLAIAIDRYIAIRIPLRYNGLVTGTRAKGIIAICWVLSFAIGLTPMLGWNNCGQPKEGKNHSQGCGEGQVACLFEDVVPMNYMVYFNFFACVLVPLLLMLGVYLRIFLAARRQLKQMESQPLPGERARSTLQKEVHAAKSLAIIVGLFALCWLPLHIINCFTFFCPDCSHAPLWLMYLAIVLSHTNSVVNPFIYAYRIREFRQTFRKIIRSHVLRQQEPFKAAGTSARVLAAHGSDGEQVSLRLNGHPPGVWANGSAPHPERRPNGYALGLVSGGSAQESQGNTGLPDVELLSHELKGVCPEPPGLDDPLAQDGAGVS
Text: as §1, §2
2.1 Adenosine A2a Receptor
CHO-K1/A2aR cells were cultured in DMEM/F12 medium containing 10% fetal bovine serum and 800 μg/ml bleomycin. The cells were digested with the cell separation buffer during the experiment. The cells were resuspended in the balanced salt buffer containing 20 mM HEPES and 0.1% bovine serum albumin and counted, and the cell density was adjusted to 10^6 cells/ml. In the 384-well plate, each well was added with 5 μl of cell suspension, and 2.5 μl of test compound (4× concentration) formulated with the balanced salt buffer containing 20 mM HEPES, 0.1% bovine serum albumin, 54 μM rolipram and 2.7 U/ml adenosine deaminase, and the plate was incubated at room temperature for 30 minutes. Each well was then added with 2.5 μl of […] (4× concentration) formulated with the balanced salt buffer containing 20 mM HEPES, 0.1% bovine serum albumin, 54 μM rolipram and 2.7 U/ml adenosine deaminase, and the plate was incubated at room temperature for 30 minutes. The final concentrations of the compounds were: 10000, 2000, 400, 80, 16, 3.2, 0.64, 0.128, 0.0256, 0.00512, and 0.001024 nM. The final concentration of […] was 20 nM. Intracellular cAMP concentration was detected with the cAMP dynamic 2 kit. cAMP-d2 and Anti-cAMP-Eu-Cryptate were diluted respectively with the cAMP lysis buffer at a ratio of 1:4. Each well was added with 5 μl of diluted cAMP-d2, followed by addition of 5 μl of diluted Anti-cAMP-Eu-Cryptate, and the plate was incubated at room temperature in the dark for 1 hour. The HTRF signal values were read by the PHERAstar multi-function microplate reader.

Row | Structure (SMILES) | IC50 [1] [nM] | IC50 ratio (A1R/A2aR) [1] | IC50 [2] [nM] | IC50 ratio (A2bR/A2aR) [2] | IC50 ratio (A3R/A2aR) [3] | IC50 [3] [nM] | IC50 ([4]; Table 1, ethyl carbazole 20 nM) [nM] | IC50 ([4]; Table 2, ethyl carbazole 20 nM) [nM] | IC50 ([4]; Table 3, ethyl carbazole 20 nM) [nM]
1 | Cc1cc(-c2c(-c3ccccc3)nc(N)n3cnnc23)cc(Cl)n1 [Example 4, 8-(2-Chloro-6-methylpyridin-4-yl)-7-phenyl-[1,2,4]triazolo[4,3-c]pyrimidin-5-amine] | 37 | 463 | 82.6 | 1032 | >1.3 × 10^5 | > 10000 | 0.08 | 0.08 | 0.08
2 | Cc1cc(-c2c(-c3ccccc3)nc(N)n3cnnc23)cc2cccnc12 [Example 5, 8-(8-Methylquinolin-6-yl)-7-phenyl-[1,2,4]triazolo[4,3-c]pyrimidin-5-amine] | 12 | 133 |  |  | 1.5 × 10^4 | 1400 | 0.09 | 0.09 | 
3 | Nc1nc(-c2ccccc2)c(-c2cc(F)c3ncccc3c2)c2nncn12 [Example 7, 8-(8-Fluoroquinolin-6-yl)-7-phenyl-[1,2,4]triazolo[4,3-c]pyrimidin-5-amine] | 16 | 100 |  |  | 3.1 × 10^4 | 5000 | 0.16 | 0.16 | 
4 | Cc1cc(-c2c(-c3ccccc3)nc(N)n3cnnc23)cc(C)n1 [Example 11, 8-(2,6-Dimethylpyridin-4-yl)-7-phenyl-[1,2,4]triazolo[4,3-c]pyrimidin-5-amine] | 102 | 680 |  |  | >6.7 × 10^4 | > 10000 | 0.15 | 0.15 | 
5 | Cc1cc(-c2c(-c3ccccc3F)nc(N)n3cnnc23)cc(C)n1 [Example 19, 8-(2,6-Dimethylpyridin-4-yl)-7-(2-fluorophenyl)-[1,2,4]triazolo[4,3-c]pyrimidin-5-amine] | 173 | 180 | 85.4 | 89 | >10^4 | > 10000 | 0.96 | 0.96 | 0.96
6 | Cc1cc(-c2c(-c3ccccc3F)nc(N)n3cnnc23)cc(Cl)n1 [Example 27, 8-(2-Chloro-6-methylpyridin-4-yl)-7-(2-fluorophenyl)-[1,2,4]triazolo[4,3-c]pyrimidin-5-amine] | 71 | 142 |  |  | >2 × 10^4 | > 10000 | 0.5 | 0.5 | 

Results, then the compound that gave them:

Row | IC50 [1] [nM] | IC50 ratio (A1R/A2aR) [1] | IC50 [2] [nM] | IC50 ratio (A2bR/A2aR) [2] | IC50 ratio (A3R/A2aR) [3] | IC50 [3] [nM] | IC50 ([4]; Table 1, ethyl carbazole 20 nM) [nM] | IC50 ([4]; Table 2, ethyl carbazole 20 nM) [nM] | IC50 ([4]; Table 3, ethyl carbazole 20 nM) [nM] | Structure (SMILES)
7 | 66 | 127 |  |  | >1.9 × 10^4 | > 10000 | 0.52 | 0.52 |  | Cc1cc(-c2c(-c3ccc(F)cc3)nc(N)n3cnnc23)cc(C)n1 [Example 28, 8-(2,6-Dimethylpyridin-4-yl)-7-(4-fluorophenyl)-[1,2,4]triazolo[4,3-c]pyrimidin-5-amine]
8 | 418 | 1161 |  |  | >10^4 | > 10000 | 0.36 | 0.36 |  | Cc1cc(-c2c(-c3ccc(F)cc3)nc(N)n3cnnc23)cc(C(F)F)n1 [Example 51, 8-(2-(Difluoromethyl)-6-methylpyridin-4-yl)-7-(4-fluorophenyl)-[1,2,4]triazolo[4,3-c]pyrimidin-5-amine]
9 | 41 | 85 |  |  | >10^4 | > 10000 | 0.48 | 0.48 |  | Cc1cc(-c2c(-c3ccc(Cl)cc3)nc(N)n3cnnc23)cc(C(F)F)n1 [Example 52, 7-(4-Chlorophenyl)-8-(2-(difluoromethyl)-6-methylpyridin-4-yl)-[1,2,4]triazolo[4,3-c]pyrimidin-5-amine]
10 | 222 | 214 | 78.2 | 75 | >10^3 | > 10000 | 1.04 | 1.04 | 1.04 | Cc1cc(-c2c(-c3ccc(F)cc3)nc(N)n3cnnc23)cc(CF)n1 [Example 55, 8-(2-(Fluoromethyl)-6-methylpyridin-4-yl)-7-(4-fluorophenyl)-[1,2,4]triazolo[4,3-c]pyrimidin-5-amine]
11 | 248 | 148 | 112 | 67 | >10^3 | > 10000 | 1.68 | 1.68 | 1.68 | Cc1cc(-c2c(-c3ccccc3F)nc(N)n3cnnc23)cc(C(F)F)n1 [Example 56, 8-(2-(Difluoromethyl)-6-methylpyridin-4-yl)-7-(2-fluorophenyl)-[1,2,4]triazolo[4,3-c]pyrimidin-5-amine]
